Laboratory results: US20120122848A1, “(+)-3-HYDROXYMORPHINAN DERIVATIVES AS NEUROPROTECTANTS” (GREEN CROSS CORPORATION, priority 2009, published 2012)
Structures can show the parent of a compound that is named as a salt.

Tests used:
[1] = Total antioxidant activity assay (TEAC; metmyoglobin, 2,2′-azinobis(3-ethylbenzoline 6-sulfonate), H2O2); conditions: 7.5 min at 30° C., absorbance at 734 nm
Experimental: Briefly, 1 ml of reaction mixture including 2.5 μM metmyoglobin, 150 μM 2,2′-azinobis(3-ethylbenzoline 6-sulfonate), 75 μM H2O2, and 0.84% sample or Trolox (for standard) in PBS was incubated for 7.5 min at 30° C.; then the absorbance at 734 nm was measured. The data are normalized to 1 mM Trolox (TEAC activity) [Kumiko I. et al., The Activation of Dopamine D4 Receptors Inhibits Oxidative Stress-Induced Nerve Cell Death., J. Neurosci., 2001]. The EC50 values were analyzed statistically using Prizm® (GraphPad Software Inc., San Diego, Calif., USA).

[2] = Cell cytotoxicity test: protection of HT22 cells against glutamate toxicity (EC50) and cytotoxicity of the compounds (CC50), MTT; format: cell-based, mouse; conditions: mouse, HT22 cells (mouse hippocampal neuron)
In short: (§1)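 Cells plated 16 hrs, then exposed to 5 mM glutamate plus a compound concentration series for 24 hrs in DMEM with 10% FBS. Viability by MTT (4 hrs), absorbance at 450 nm; EC50 is protection against glutamate toxicity, CC50 is compound cytotoxicity.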

[3] = test system: HT22 cells (mouse hippocampal neuron); test: as above; format: cell-based; conditions: Mus musculus, HT-22, five millimolar glutamate, 24 hrs, read-out: EC50 (neuroprotective effect against glutamate toxicity)
In short: as §1

Row | SMILES | EC50 [1] | CC50 at 24 h [2] | EC50 [3]
1 | Cc1c(C)c2c(c(C)c1O)CCC(C)(C(=O)O)O2 (centres unmarked) [Trolox] | 47500 nM | – | –
2 | CCNc1cc2c(cc1O)[C@]13CCCC[C@@H]1[C@H](C2)NCC3 [Example 23, (+)-2-Ethylamino-3-hydroxymorphinan TFA salt] | – | 49100 nM | 1100 nM
3 | CCCCc1cc2c(cc1O)[C@]13CCCC[C@@H]1[C@H](C2)NCC3 [Example 83, (+)-2-Butyl-3-hydroxymorphinan TFA salt] | – | 51500 nM | 2070 nM
4 | CCCCNC(=O)Nc1ccccc1Nc1cc2c(cc1O)[C@]13CCCC[C@@H]1[C@H](C2)NCC3 [Example 121, (+)-2-(2-(Butylureido)phenylamino)-3-hydroxymorphinan TFA salt] | – | 23100 nM | > 100000 nM
5 | Nc1ccc(Nc2cc3c(cc2O)[C@]24CCCC[C@@H]2[C@H](C3)NCC4)cc1 [Example 32, (+)-2-(4-Aminophenyamino)-3-hydroxymorphinan TFA salt] | – | 14100 nM | 43.1 nM
6 | NC(=O)c1ccccc1Nc1cc2c(cc1O)[C@]13CCCC[C@@H]1[C@H](C2)NCC3 [Example 61, (+)-2-(2-Carbamoylphenylamino)-3-hydroxymorphinan TFA salt] | – | 50000 nM | 1790 nM
7 | Oc1cc2c(cc1Nc1ccc3ncccc3c1)C[C@@H]1NCC[C@]23CCCC[C@H]13 [Example 68, TFA salt] | – | 8500 nM | 1720 nM
8 | CCC(C)Nc1cc2c(cc1O)[C@]13CCCC[C@@H]1[C@H](C2)NCC3 (stereo partly drawn) [Example 95, (+)-2-(sec-Butylamino)-3-hydroxymorphinan TFA salt] | – | 66400 nM | 131 nM
9 | N#Cc1ccccc1Nc1cc2c(cc1O)[C@]13CCCC[C@@H]1[C@H](C2)NCC3 [Example 107, (+)-2-(2-Cyanophenylamino)-3-hydroxymorphinan TFA salt] | – | 5800 nM | 557 nM
10 | Oc1ccc(Nc2cc3c(cc2O)[C@]24CCCC[C@@H]2[C@H](C3)NCC4)c(O)c1 [Example 45, (+)-2-(2,4-Dihydroxyphenylamino)-3-hydroxymorphinan TFA salt] | – | 40900 nM | 73.1 nM
11 | Oc1ccccc1Nc1cc2c(cc1O)[C@]13CCCC[C@@H]1[C@H](C2)NCC3 [Example 43, (+)-3-Hydroxy-2-(2-hydroxyphenylamino)morphinan TFA salt] | – | 10400 nM | 2.71 nM
12 | CC1(c2cc3c(cc2O)[C@]24CCCC[C@@H]2[C@H](C3)NCC4)CCCCC1 [Example 105, (+)-3-Hydroxy-2-(1-methylcyclohexyl)morphinan TFA salt] | – | 2240 nM | 594 nM
13 | O=C(O)c1ccccc1Nc1cc2c(cc1O)[C@]13CCCC[C@@H]1[C@H](C2)NCC3 [Example 109, (+)-2-(2-Carboxyphenylamino)-3-hydroxymorphinan TFA salt] | – | > 100000 nM | 14100 nM
14 | CC(C)COC(=O)Nc1ccccc1Nc1cc2c(cc1O)[C@]13CCCC[C@@H]1[C@H](C2)NCC3 [Example 119, (+)-3-Hydroxy-2-(2-(isobutyloxycarbonylamino)phenylamino)morphinan TFA salt] | – | 8700 nM | 211 nM
15 | COc1ccc(Nc2cc3c(cc2O)[C@]24CCCC[C@@H]2[C@H](C3)NCC4)cc1 [Example 31, (+)-3-Hydroxy-2-(4-methoxyphenylamino)morphinan TFA salt] | – | 7500 nM | 40.4 nM
16 | Oc1cccc(Nc2cc3c(cc2O)[C@]24CCCC[C@@H]2[C@H](C3)NCC4)c1 [Example 44, (+)-3-Hydroxy-2-(3-hydroxyphenylamino)morphinan TFA salt] | – | 75000 nM | 802 nM
17 | CC(C)Nc1cc2c(cc1O)[C@]13CCCC[C@@H]1[C@H](C2)NCC3 [Example 87, (+)-3-Hydroxy-2-isopropylaminomorphinan TFA salt] | – | 39500 nM | 35.4 nM
18 | Oc1cc2c(cc1Nc1ccccc1N1CCCCC1)C[C@@H]1NCC[C@]23CCCC[C@H]13 [Example 128, (+)-3-Hydroxy-2-(2-(piperidin-1-yl)phenylamino)morphinan TFA salt] | – | 1600 nM | 35.6 nM
19 | CN(c1cc2c(cc1O)[C@]13CCCC[C@@H]1[C@H](C2)NCC3)c1ccccc1NS(C)(=O)=O [Example 125, (+)-3-Hydroxy-2-(2-(methanesulfonamido)phenyl(methyl)amino)morphinan TFA salt] | – | 45900 nM | 10900 nM
20 | Oc1cc2c(cc1NC1CCCCCC1)C[C@@H]1NCC[C@]23CCCC[C@H]13 [Example 94, (+)-2-Cycloheptylamino-3-hydroxymorphinan TFA salt] | – | 7550 nM | 102 nM
21 | Oc1cc2c(cc1Nc1ccccc1)C[C@@H]1NCC[C@]23CCCC[C@H]13 [Example 30, (+)-3-Hydroxy-2-(phenylamino)morphinan TFA salt] | – | 7790 nM | 35.8 nM
22 | CS(=O)(=O)Nc1ccccc1Nc1c(O)cc2c(c1Cl)C[C@@H]1NCC[C@]23CCCC[C@H]13 [Example 133, (+)-1-Chloro-3-hydroxy-2-(2-(methanesulfonamido)phenylamino)morphinan TFA salt] | – | 16500 nM | 256 nM
23 | CCN(C)c1ccccc1Nc1cc2c(cc1O)[C@]13CCCC[C@@H]1[C@H](C2)NCC3 [Example 131, (+)-2-(2-(Ethyl(methyl)amino)phenylamino)-3-hydroxymorphinan TFA salt] | – | 1500 nM | 17.7 nM
24 | Oc1cc2c(cc1Nc1cccc3cnccc13)C[C@@H]1NCC[C@]23CCCC[C@H]13 [Example 67, TFA salt] | – | 12500 nM | 107 nM
25 | CCCc1cc2c(cc1O)[C@]13CCCC[C@@H]1[C@H](C2)NCC3 [Example 82, (+)-3-Hydroxy-2-propylmorphinan TFA salt] | – | 28200 nM | 1020 nM
26 | Oc1cc2c(cc1N1CCCCCC1)C[C@@H]1NCC[C@]23CCCC[C@H]13 [Example 17, (+)-2-(Azepan-1-yl)-3-hydroxymorphinan TFA salt] | – | 12200 nM | 579 nM
27 | Oc1cc2c(cc1Nc1ccccc1Cc1ccccc1)C[C@@H]1NCC[C@]23CCCC[C@H]13 [Example 62, (+)-2-(2-Benzylphenylamino)-3-hydroxymorphinan TFA salt] | – | 1600 nM | 52.4 nM
